What all share (assay): DTP human tumour cell line panel, 48 h
The subject of assay [1] is 786-0.
The test system of assay [2] is MOLT-4.
Assay [3] concerns CAKI-1.
Assay [4] relates to A498.
For assay [5], the system named is OVCAR-4.
The subject of assay [6] is HL-60.
The test system of assay [7] is MDA-MB-435.
In assay [8] the test system is LOX IMVI.
The subject of assay [9] is KM12.
For assay [10], the system named is RPMI-8226.
Assay [11] deals with OVCAR-3.
The test system of assay [12] is PC-3.
Assay [13] deals with ACHN.
In assay [14] the test system is M14.
For assay [15], the system named is HCT-15.
For assay [16], the system named is NCI-H226.
Assay [17] has as its system Malme-3M.
In assay [18] the test system is SK-MEL-2.
Assay [19] concerns NCI-H460.
Assay [20] concerns K562.

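Following 48 hours of exposure in 96-well plates, responses at five concentrations were used to interpolate endpoints linearly. At the GI50, growth is halved.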 Activity calls are given as the source filed them. No stated cut-off is given here; in the data, active = GI50 up to about 1.1 µM and inactive = higher.

As usually defined, the GI50 is the concentration giving 50% growth inhibition. Consider `COc1cccc2c1C(=O)c1c(O)c3c(c(O)c1C2=O)C[C@@](O)(C(C)=O)C[C@@H]3OC1OC(C)C(O)C(N)C1Br` (stereo not given in full), for which the 50% growth inhibitory concentration (GI50) in assay [1] is 40.4 nM (active); in assay [2], 1 nM (active); in assay [3] it was 13.9 nM (active); in assay [4], 133 nM (active); in [5], 185 nM (active); in assay [6] it was 9.71 nM (active). The 50% growth inhibitory concentration (GI50) was 220 nM (active) in [7]; 20.8 nM (active) in [8]; 140 nM (active) in assay [9]; 15.6 nM (active) in assay [10]; 136 nM (active) in assay [11]; 138 nM (active) in [12]. In addition, the 50% growth inhibitory concentration (GI50) is 21.3 nM (active) in assay [13]; 68.1 nM (active) in [14]; 132 nM in [15]; 16.5 nM (active) in [16]; 76.9 nM (active) in [17]; 267 nM (active) in assay [18]. In addition, the GI50 in [19] was 1 nM (active); in assay [20], 49.5 nM (active).

As for `CCCCC(=O)OC[n+]1ccc2c(C)c3[nH]c4ccccc4c3c(C)c2c1`, the GI50 in [1] was 298 nM (active); in assay [2], 77.5 nM (active); in assay [3], 1250 nM (inactive); in [4] it was 681 nM (active); in [5] it was 1010 nM (active); in [6], 378 nM (active). For the same compound, the GI50 was 618 nM (active) in assay [7]; 493 nM (active) in assay [8]; 446 nM (active) in assay [9]; 195 nM (active) in assay [10]; 1220 nM (inactive) in assay [11]; 298 nM (active) in [12]. Also, the GI50 in [13] is 187 nM (active); in assay [14] it was 1340 nM (inactive); in assay [15], 222 nM; in [16] it was 475 nM (active); in [17] it was 1460 nM (inactive); in assay [18] it was 1970 nM (inactive). For the same compound, the GI50 in [19] was 27.5 nM (active); in [20] it was 186 nM (active).

The values are drawn from ChEMBL document CHEMBL1201862, “PubChem BioAssay data set” (2004).
